This note sets out measurements from patent US7183322B2, “Remedy for hypertension” (Taisho Pharmaceutical Co., Ltd., priority 2002, dated 2007).

Experiment [1] deals with Brain microsomal Na+/Ca2+ exchanger. As to the kind of experiment: Brain microsomal Na+/Ca2+ exchanger (Na-dependent 45Ca uptake). Format: biochemical. To be noted: rat brain microsomes; read-out: Inhibitory activity against Na+/Ca2+ exchange (Na-dependent 45Ca uptake), IC50 value, Brain. The protocol:
Method of Measuring for Brain Microsomal Na^+/Ca^2+ Exchanger
Brain microsomes (1.5 mg/ml) obtained from 8-week-old rats were pre-treated with 160 mM NaCl-containing buffer to cause Na loading into membrane vesicles. This suspension was diluted 50-fold with 20 μM ^45CaCl2-containing buffer to induce ^45Ca uptake, followed by dilution with the buffer (0° C.) to stop the reaction. The membrane vesicles were immediately collected on a nitrocellulose filter. Subsequently, ^45Ca trapped inside the membrane vesicles was determined by liquid scintillation counting. The above assay for Na^+/Ca^2+ exchange activity in brain microsomes was performed according to the procedures described in J. Biol. Chem., vol. 257, p. 5111 (1982).

Experiment [2] relates to Dahl salt-sensitive hypertension rats. As to the kind of experiment: Dahl salt-sensitive hypertension rat model, systolic blood pressure. Format: in vivo. As to conditions: for % change in blood pressure: one hour after administration, systolic. An excerpt:
(Creation of Dahl Salt-sensitive Hypertension Rat Model)
Dahl salt-sensitive hypertension rats (7 weeks old) were used in the experiment. They were fed a 4% NaCl high-salt chow (0.6% for normal chow), but were allowed to drink water without any restriction. At two weeks after high-salt loading, the animals confirmed to develop hypertension were divided into the following 4 groups for use in the experiment.
(Experimental Animal Groups)
After loading the high-salt chow for two weeks as described above, an acute experiment was performed. On the day of the experiment, the systolic blood pressure (before administration) was measured for each animal under non-anesthesia conditions using a noninvasive sphygmomanometer. The animals were then administered orally with the solvent or SEA0400(3, 10, or 30 mg/kg) and monitored over time for their systolic blood pressure.

The target in experiment [3] is renal cortex-derived Na+/Ca2+ exchanger (NCX1) (Rattus norvegicus, UniProt Q01728). As to the kind of experiment: Rat renal cortex-derived BLMVs Na+/Ca2+ exchange activity (Na-dependent 45Ca uptake). Format: biochemical. As to conditions: read-out: Inhibitory activity against Na+/Ca2+ exchange (Na-dependent 45Ca uptake), IC50 value, Renal cortex. The protocol: BLMVs were prepared from rat renal cortex and assayed for Na^+/Ca^2+ exchange activity according to the procedures described in Am. J. Physiol., vol. 266, p. F785 (1994). After being excised from rats, the kidneys were placed in ice-cold sucrose buffer ([…], 0.1 mM PMSF, 10 mM Tris-HCl (pH 7.6)) and decapsulated. The isolated cortex was then finely minced in the sucrose buffer and homogenized sequentially with a Dounce-type homogenizer and a Polytron-type homogenizer, followed by centrifugation at 2500 g for 15 minutes to collect the supernatant. Centrifugation was repeated at 24000 g for 20 minutes to collect the white fluffy portion of the pellet. After further addition of the sucrose buffer, the collected fraction was homogenized with a Dounce-type homogenizer, supplemented with Percoll and then centrifuged at 30000 g for 35 minutes to collect the middle layer. After addition of buffer (100 mM KCl, 100 mM mannitol, 5 mM HEPES-Tris (pH 7.4)), centrifugation was carried out at 34000 g for 30 minutes to collect the loose white pellet (BLMVs). […] Subsequently, the filter was washed twice with 2 ml stop solution and then the amount of ^45Ca trapped inside the BLMVs was determined by using liquid scintillation method.

Experiment [4] addresses T1, Canine cardiac sarcolemmal vesicle Na+/Ca2+ exchanger (Canis lupus familiaris, UniProt P23685).
T1 construct: Canine cardiac sarcolemmal vesicles (0.5 mg/ml) were prepared by centrifugal fractionation; from tissue; host or cells: canine cardiac sarcolemmal vesicles
The experiment is described as follows: Canine cardiac sarcolemmal vesicle Na+/Ca2+ exchanger (Na-dependent 45Ca uptake). As to conditions: canine cardiac sarcolemmal vesicles; read-out: Inhibitory activity against Na+/Ca2+ exchange (Na-dependent 45Ca uptake), IC50 value, Cardiac sarcolemma. Format: biochemical. The protocol: Method of Measuring for Canine Cardiac Sarcolemmal Vesicle Na^+/Ca^2+ Exchanger
Canine cardiac sarcolemmal vesicles (0.5 mg/ml) were prepared by centrifugal fractionation as described in Methods enzymology, vol. 157, p. 85 (1988) and suspended in Solution A (20 mM MOPS-Tris (pH 7.4), 160 mM NaCl or KCl), followed by incubation at room temperature for about one hour to cause Na or K loading into the vesicles. This suspension was diluted 50-fold with 20 μM ^45CaCl2-containing buffer to induce ^45Ca uptake, followed by dilution with the buffer (0° C.) to stop the reaction. The membrane vesicles were immediately collected on a nitrocellulose filter. Subsequently, ^45Ca trapped inside the membrane vesicles was determined by liquid scintillation counting. The Na^+/Ca^2+ exchange activity was evaluated by subtracting the value obtained for K loading from the value obtained for Na loading. The above assay for Na^+/Ca^2+ exchange activity in canine cardiac sarcolemmal vesicles was performed according to the procedures described in J. Biol. Chem., vol. 257, p. 5111 (1982).

On to `CCOc1ccc(Oc2ccc(OCc3cc(F)ccc3F)cc2)c(N)c1` [SEA0400, 2-[4-[(2,5-difluorophenyl)methoxy]phenoxy]-5-ethoxyaniline], for which the IC50 in experiment [1] is 0.2 µM. Further, the results for the “% change in blood pressure” value in experiment [2] (3 mg/kg oral), in experiment [2] (10 mg/kg oral) and in experiment [2] (30 mg/kg oral) were −9.5±1.8%, −12.0±0.9% and −12.7±3.4%, respectively. Besides, the “Reduction in blood pressure compared with the solvent group” value in experiment [2] (10 mg/kg and 30 mg/kg groups, oral) is “significant reduction in blood pressure”.

In the case of `N=C(N)SCCc1ccc(OCc2ccc([N+](=O)[O-])cc2)cc1` [K-BR7943, 2-[2-[4-[nitrobenzyloxy]phenyl]ethyl]isothio-ureamethanesulfonate], the IC50 in experiment [3] worked out at 6.8 µM; in experiment [1], 11 µM; in experiment [4] it was 7 µM.
